Values quoted from earlier work as cited in patent publication US8337481B2, “Method for treating otitis externa” (priority 2005, dated 2012).

Row | Biological Half Life | Structure (SMILES)
1 | 18-36 Hours | C[C@H]1C[C@@H]2[C@H]([C@@H](O)C[C@@]3(C)[C@H]2CC[C@]3(O)C(=O)CO)[C@@]2(C)C=CC(=O)C=C12 [Methyl-prednisolone, methylprednisolone]
2 | 8-12 Hours | C[C@]12CCC(=O)C=C1CC[C@@H]1[C@@H]2[C@@H](O)C[C@@]2(C)[C@H]1CC[C@]2(O)C(=O)CO [hydrocortisone]
3 | 18-36 Hours | C[C@]12C=CC(=O)C=C1CC[C@@H]1[C@@H]2[C@@H](O)C[C@@]2(C)[C@H]1CC[C@]2(O)C(=O)CO [prednisolone]
4 | 18-36 Hours | C[C@]12C=CC(=O)C=C1CC[C@H]1[C@@H]3C[C@@H](O)[C@](O)(C(=O)CO)[C@@]3(C)C[C@H](O)[C@@]12F [triamcinolone]
